Assay results reported in article PMC6556873, “Rapid Covalent-Probe Discovery by Electrophile-Fragment Screening” (Journal of the American Chemical Society, 2019).
Like-named read-outs stand apart in the source and are kept apart here.

Columns and labels:
BSA = target: T1, BSA (Bos taurus, UniProt P02769); design: Intact protein LC/MS covalent labelling, fragments in pools of five, 200 uM each, 4 °C; conditions: 24 h, 4 °C, pool of five; 200 µM; covalent
T1 construct: gene ALB
Protocol: (§1) Incubations were performed at 200 μM for each compound and 2 μM of protein (10 μM for BSA) for 24 h at 4 °C with moderate shaking. Incubation buffers varied among proteins (PBS pH 7.4 for QSOX1 and BSA; 10 mM HEPES pH 7.5, 0.3 M NaCl, 0.5 mM TCEP for PCAF, UPS8, and NUDT7; […]; 10 mM Na2HPO4 pH 7.5 100 mM NaCl 5 mM β-mercaptoethanol for NV3CP; 20 mM Na phosphate pH 7.5 for NNMT; […]. The reaction was stopped by quenching with formic acid, 0.4% final concentration. Each protein was incubated with the electrophilic library in pools of five compounds per well. The pool’s composition maximized the difference in mass between fragments in the same well. Incubations were performed with each fragment at 200 μM, for 24 h at 4 °C, to allow the screening of proteins that are not stable for long time periods at higher temperatures. Following incubation, we used intact protein [compound left out] chromatography/mass spectrometry (LC/MS) to identify the fragments and quantify their labeling (Figure 3A). […] There was good agreement between the percent of labeling of NUDT7 by 100 random individual compounds and that obtained in pools of five (R^2=0.78; Figure S6 and Data set 2 in the Supporting Information).

NUDT7 = target: T2, NUDT7 (Homo sapiens, UniProt P0C024); design: Intact protein LC/MS covalent labelling, fragments in pools of five, 200 uM each, 4 °C; conditions: 24 h, 4 °C, pool of five; 200 µM; covalent
T2 construct: residues 14-235, E. coli, pNIC28-Bsa4, N-terminal His6 tag removed by TEV, construct 26672 Da
Protocol: as §1

OTUB2 (OTUB2A) = target: T3, OTUB2 (OTUB2A) (Homo sapiens, UniProt Q96DC9); design: Intact protein LC/MS covalent labelling, fragments in pools of five, 200 uM each, 4 °C; conditions: 24 h, 4 °C, pool of five; 200 µM; covalent
T3 construct: full length residues 1-234, E. coli BL21(DE3)-R3, His tag removed by TEV, construct 27312 Da
T3 sequence (Q96DC9 1-234): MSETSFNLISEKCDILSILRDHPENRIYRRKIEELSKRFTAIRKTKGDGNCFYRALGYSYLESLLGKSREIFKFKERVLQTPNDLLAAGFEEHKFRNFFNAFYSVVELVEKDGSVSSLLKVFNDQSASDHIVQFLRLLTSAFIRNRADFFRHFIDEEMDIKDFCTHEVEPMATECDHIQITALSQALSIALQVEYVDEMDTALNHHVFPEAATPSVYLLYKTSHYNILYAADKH
Protocol: as §1

PCAF = target: T4, PCAF (Homo sapiens, UniProt Q92831); design: Intact protein LC/MS covalent labelling, fragments in pools of five, 200 uM each, 4 °C; conditions: 24 h, 4 °C, pool of five; 200 µM; covalent
T4 construct: gene KAT2B
Protocol: as §1

in vitro [1] = experiment: in vitro; design: species or system CCD841, HEK293; conditions: human, hb2 cells, read-out: HB-2 Cells Viability (%)
in vitro [2] = experiment: in vitro; design: species or system HB2, HEK293; conditions: human, ccd841 cells
in vitro [3] = experiment: in vitro; design: species or system HB2, CCD841; conditions: human, hek293 cells

T1 sequence (P02769 whole entry, the tested form may be a part): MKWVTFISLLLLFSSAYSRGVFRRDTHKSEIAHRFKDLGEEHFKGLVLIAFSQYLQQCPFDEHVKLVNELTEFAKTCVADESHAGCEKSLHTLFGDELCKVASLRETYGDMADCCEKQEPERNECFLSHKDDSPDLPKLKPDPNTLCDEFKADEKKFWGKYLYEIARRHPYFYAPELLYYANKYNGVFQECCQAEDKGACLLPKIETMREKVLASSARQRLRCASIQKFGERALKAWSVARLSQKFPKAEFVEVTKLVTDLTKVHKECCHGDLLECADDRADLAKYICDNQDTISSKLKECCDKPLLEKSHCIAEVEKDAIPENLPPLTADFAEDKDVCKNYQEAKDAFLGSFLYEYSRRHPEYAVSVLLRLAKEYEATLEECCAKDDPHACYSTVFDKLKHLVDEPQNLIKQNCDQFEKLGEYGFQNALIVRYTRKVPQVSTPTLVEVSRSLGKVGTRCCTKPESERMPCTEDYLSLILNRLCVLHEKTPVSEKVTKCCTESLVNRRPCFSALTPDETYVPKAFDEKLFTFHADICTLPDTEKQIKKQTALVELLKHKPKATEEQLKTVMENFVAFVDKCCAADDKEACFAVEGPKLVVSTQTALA
T4 sequence (Q92831 whole entry, the tested form may be a part): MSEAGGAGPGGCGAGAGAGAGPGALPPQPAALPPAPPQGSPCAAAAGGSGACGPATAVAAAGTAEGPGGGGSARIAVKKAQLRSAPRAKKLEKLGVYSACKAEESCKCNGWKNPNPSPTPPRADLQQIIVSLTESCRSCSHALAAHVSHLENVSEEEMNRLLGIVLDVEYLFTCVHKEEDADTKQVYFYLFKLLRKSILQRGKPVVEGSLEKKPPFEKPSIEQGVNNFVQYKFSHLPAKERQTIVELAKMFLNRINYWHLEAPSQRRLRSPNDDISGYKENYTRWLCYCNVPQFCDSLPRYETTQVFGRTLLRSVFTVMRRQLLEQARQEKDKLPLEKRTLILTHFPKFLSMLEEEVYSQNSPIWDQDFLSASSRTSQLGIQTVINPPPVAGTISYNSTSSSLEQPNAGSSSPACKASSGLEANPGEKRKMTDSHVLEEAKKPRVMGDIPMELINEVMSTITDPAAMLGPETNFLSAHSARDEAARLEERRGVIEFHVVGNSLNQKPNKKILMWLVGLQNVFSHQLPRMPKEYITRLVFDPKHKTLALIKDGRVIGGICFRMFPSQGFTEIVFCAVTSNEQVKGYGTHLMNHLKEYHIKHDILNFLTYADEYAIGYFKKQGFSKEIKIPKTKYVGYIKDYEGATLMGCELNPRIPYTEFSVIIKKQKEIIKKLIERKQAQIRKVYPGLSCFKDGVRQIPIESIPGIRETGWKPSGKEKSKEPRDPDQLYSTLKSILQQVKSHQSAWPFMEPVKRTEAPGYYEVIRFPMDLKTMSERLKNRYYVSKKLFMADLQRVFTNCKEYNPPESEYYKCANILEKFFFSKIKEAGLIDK
T2 sequence (P0C024 14-235): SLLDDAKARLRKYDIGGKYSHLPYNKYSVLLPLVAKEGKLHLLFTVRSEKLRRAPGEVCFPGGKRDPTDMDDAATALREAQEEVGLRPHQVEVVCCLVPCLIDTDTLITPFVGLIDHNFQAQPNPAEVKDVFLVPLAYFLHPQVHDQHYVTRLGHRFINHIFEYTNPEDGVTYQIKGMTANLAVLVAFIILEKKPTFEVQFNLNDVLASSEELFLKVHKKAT

BSA (BSA) | NUDT7 (NUDT7) | OTUB2 (OTUB2 (OTUB2A)) | PCAF (PCAF) | Compound | viability at 48 h, 10 µM (in vitro [1]) | viability at 48 h, 10 µM (in vitro [2]) | viability at 48 h, 10 µM (in vitro [3])
0.21 | 0 | 0.29 | 0 | CC1CCCC(NC(=O)CCl)C1C (centres unmarked) [PCM-0102663] | 98.5% | 104% | 87.3%
0 | 0 | 0 | 0 | N#CC(c1cccs1)N1CCN(C(=O)CCl)CC1 (centres unmarked) [PCM-0102223] | 74% | 75.5% | 64.6%
0 | 0.69 | 0 | 0 | O=C(CCl)N1CCc2sccc2C1c1ccccc1 (centres unmarked) [PCM-0103024] | 4.6% | 3% | 1.9%
0 | 0 | 0 | 0 | O=C(CCl)Nc1ccc(F)cc1Cl [PCM-0103040] | 76.9% | 68.7% | 60.3%
0 | 0 | 0.16 | 0 | O=C(CCl)Nc1ccc(O)cc1 [PCM-0102163] | 67.8% | 60.5% | 38.2%
0 | 0.36 | 0.26 | 0 | O=C(CCl)Nc1cc2c(cc1Cl)OCCCO2 [PCM-0102331] | 17.2% | 57.1% | 10.3%
0 | 0.27 | 0 | 0 | O=C(CCl)N1CCN(c2ccc([N+](=O)[O-])cc2)CC1 [PCM-0102094] | 1.2% | 9.2% | 1.3%
0 | 0 | 0 | 0 | COC(=O)c1ccc(NC(=O)CCl)cc1 [PCM-0102204] | 22.5% | 56.2% | 3.8%
0 | 0 | 0 | 0 | CC(C#N)(NC(=O)CCl)C1CC1 (centres unmarked) [PCM-0102664] | 99.7% | 89.6% | 80.8%
0 | 0.28 | 0 | 0 | N#Cc1ccccc1S(=O)(=O)N1CCN(C(=O)CCl)CC1 [PCM-0102395] | 11.2% | 62.6% | 9.7%
0 | 0.1 | 0 | 0 | CC(c1ccccc1)N(C)C(=O)CCl (centres unmarked) [PCM-0102478] | 27.5% | 60.7% | 27.5%
0 | 0 | 0 | 0 | C=CC(=O)NCC1CC12CCOCC2 (centres unmarked) [PCM-0102481] | 97% | 110% | 103%
0 | 0 | 0 | 0 | C=CC(=O)N1CCCC(NC(=O)c2ccc(C(F)(F)F)cc2)C1 (centres unmarked) [PCM-0102607] | 98.9% | 100% | 114%
0 | 0 | 0 | 0 | C=CC(=O)N1CCC(S(=O)(=O)C(C)C)CC1 [PCM-0102637] | 98.6% | 119% | 102%
0 | 0.06 | 0 | 0 | O=C(CCl)Nc1cc(Cl)ccc1Cl [PCM-0102288] | 40.7% | 70.8% | 38.4%
0 | 0 | 0 | 0 | CC(C)NC(=O)NC(=O)CCl [PCM-0102504] | 92% | 81.5% | 66.9%
0 | 0.34 | 0.8 | 0 | Cc1ccc(NC(=O)CCl)cc1I [PCM-0102577] | 4.6% | 17.9% | 2.4%
0 | 0.59 | 0.07 | 0 | O=C(CCl)Nc1ccc(Br)cc1Cl [PCM-0102505] | 41.7% | 74.6% | 31.6%
0 | 0.58 | 0.1 | 0 | Cc1c(C#N)c(NC(=O)CCl)n(-c2cccc(F)c2)c1C [PCM-0102146] | 25% | 47.1% | 3.5%
0 | 0.11 | 0 | 0 | O=C(CCl)N(C1CCCC1)C1CCS(=O)(=O)C1 (centres unmarked) [PCM-0102313] | 64.5% | 65.9% | 42.7%
0 | 0.07 | 0 | 0 | O=C(CCl)N1CCCC2CCCCC21 (centres unmarked) [PCM-0102826] | 33.7% | 32.5% | 27.9%
0.15 | 0.13 | 0.39 | 0 | Cc1cc(NC(=O)CCl)ccc1N1CCCC1 [PCM-0102175] | 10.2% | 45.1% | 2.9%
0 | 0 | 0.8 | 0 | O=C(CCl)NNC(=O)c1ccccc1Cl [PCM-0102954] | 91.9% | 72.3% | 91.3%
0 | 0.33 | 0 | 0 | CCN(C(=O)CCl)c1nc2ccccc2s1 [PCM-0102186] | 69.7% | 16.1% | 69.9%
0 | 0.07 | 0 | 0 | CC1Cc2cc(S(N)(=O)=O)ccc2N1C(=O)CCl (centres unmarked) [PCM-0102207] | 58.7% | 34.2% | 16.5%
0 | 0 | 0 | 0 | C=CC(=O)Nc1ccccc1OC [PCM-0102493] | 98.2% | 105% | 74.7%
0 | 0.42 | 0.37 | 0 | CC(NC(=O)CCl)c1cccc(Cl)c1 (centres unmarked) [PCM-0102190] | 69.6% | 73.2% | 49.3%
0 | 0 | 0 | 0 | CC(C)n1nccc1NC(=O)CCl.Cl [PCM-0102472] | 92.7% | 107% | 101%
0 | 0.54 | 0.38 | 0 | Cn1nc(-c2ccc(Cl)cc2)cc1NC(=O)CCl [PCM-0102296] | 1.6% | 4.5% | 0.5%
